Surviving fraction data for seven test systems are collected here from the supplement of paper PMC6045584.

Compound in test [1]: Cc1ccc(-c2cc(C(F)(F)F)nn2-c2ccc(S(N)(=O)=O)cc2)cc1 [CELECOXIB]
In words: surviving fraction relative to DMSO-only wells; higher = less growth inhibition. Particulars: exposure time: 5 days. The procedure, abridged:
(§1)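 Five days of continuous inhibitor exposure, at 0.5, 1, 5, 10, 50, 100, 500 and 1000 nM, followed a 24-hour period after log-phase tumour cell lines were seeded at 250–500 cells per well in 384-well plates. Surviving fraction was derived from CellTiter-Glo luminescence relative to the median of DMSO-only wells. Plates were read after 10 minutes at room temperature, and lines screened three times were kept only if replicate Pearson r >0.7 and median Z' >0.3.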

Compound in test [2]: CC(=O)O[C@H]1C(=O)[C@@]2(C)[C@H]([C@H](OC(=O)c3ccccc3)[C@]3(O)C[C@H](OC(=O)[C@H](O)[C@@H](NC(=O)c4ccccc4)c4ccccc4)C(C)=C1C3(C)C)[C@]1(OC(C)=O)CO[C@@H]1C[C@@H]2O [PACLITAXEL]
Described as above. Particulars: exposure time: 5 days. The essentials: as §1

± gives the standard deviation of the averaged measurements.

Take CME SYNOVIAL: the surviving fraction in test [1] (0.5 nM) came to 1.4 ± 0.11; in test [1] (1 nM), 1.45 ± 0.18; in test [1] (5 nM) it was 1.37 ± 0.076; in test [1] (10 nM), 1.34 ± 0.079; in test [1] (50 nM) it was 1.47 ± 0.23; in test [1] (100 nM), 1.41 ± 0.16. Besides, the surviving fraction in test [1] (500 nM) was 1.38 ± 0.13; in test [1] (1000 nM), 1.34 ± 0.076; in test [2] (0.5 nM), 1.07 ± 0.11; in test [2] (1 nM), 0.933 ± 0.11; in test [2] (5 nM), 0.524 ± 0.12; in test [2] (10 nM) it was 0.279 ± 0.073. Moreover, the surviving fraction in test [2] (50 nM) was determined as 0.258 ± 0.02; in test [2] (100 nM) it was 0.219 ± 0.028; in test [2] (500 nM), 0.2 ± 0.041; in test [2] (1000 nM) it was 0.262 ± 0.02.
Take HCC38 BREAST: the surviving fraction was determined as 1.17 ± 0.23 in test [1] (0.5 nM); 1.4 ± 0.23 in test [1] (1 nM); 1.33 ± 0.23 in test [1] (5 nM); 1.36 ± 0.25 in test [1] (10 nM); 1.25 ± 0.1 in test [1] (50 nM); 1.17 ± 0.0085 in test [1] (100 nM). For the same test system, the surviving fraction was 1.09 ± 0.095 in test [1] (500 nM); 1.15 ± 0.12 in test [1] (1000 nM); 0.894 ± 0.17 in test [2] (0.5 nM); 0.492 ± 0.062 in test [2] (1 nM); 0.138 ± 0.03 in test [2] (5 nM); 0.11 ± 0.0059 in test [2] (10 nM). Also, the surviving fraction amounted to 0.112 ± 0.053 in test [2] (50 nM), 0.094 ± 0.026 in test [2] (100 nM), 0.108 ± 0.0074 in test [2] (500 nM) and 0.0823 ± 0.0076 in test [2] (1000 nM).
For SAOS2 BONE, the surviving fraction in test [1] (0.5 nM) came out at 1.14 ± 0.078; in test [1] (1 nM), 1.05 ± 0.026; in test [1] (5 nM), 1.187 ± 0.01; in test [1] (10 nM), 1.14 ± 0.06; in test [1] (50 nM), 1.22 ± 0.07; in test [1] (100 nM) it was 1.23 ± 0.054. Besides, the surviving fraction is 1.11 ± 0.021 in test [1] (500 nM); 1.09 ± 0.018 in test [1] (1000 nM); 1.08 ± 0.043 in test [2] (0.5 nM); 1.06 ± 0.018 in test [2] (1 nM); 0.46 ± 0.043 in test [2] (5 nM); 0.165 ± 0.013 in test [2] (10 nM). The surviving fraction in test [2] (50 nM) was 0.0527 ± 0.004; in test [2] (100 nM), 0.0527 ± 0.00058; in test [2] (500 nM) it was 0.0447 ± 0.0063; in test [2] (1000 nM), 0.0557 ± 0.0063.
For HS578T BREAST, the surviving fraction in test [1] (0.5 nM) was 0.9 ± 0.013; in test [1] (1 nM), 0.892 ± 0.26; in test [1] (5 nM), 0.942 ± 0.14; in test [1] (10 nM), 0.942 ± 0.093; in test [1] (50 nM) it was 0.923 ± 0.12; in test [1] (100 nM), 1.11 ± 0.17. Besides, the surviving fraction in test [1] (500 nM) stood at 0.961 ± 0.083; in test [1] (1000 nM) it was 0.969 ± 0.1; in test [2] (0.5 nM) it was 0.428 ± 0.043; in test [2] (1 nM) it was 0.246 ± 0.019; in test [2] (5 nM), 0.127 ± 0.0038; in test [2] (10 nM) it was 0.108 ± 0.011. Further, the surviving fraction in test [2] (50 nM) came out at 0.126 ± 0.013; in test [2] (100 nM) it was 0.109 ± 0.0027; in test [2] (500 nM), 0.11 ± 0.01; in test [2] (1000 nM), 0.101 ± 0.01.
Take MDAMB231 BREAST: the surviving fraction came to 0.973 ± 0.02 in test [1] (0.5 nM); 1 ± 0.015 in test [1] (1 nM); 0.985 ± 0.018 in test [1] (5 nM); 1 ± 0.015 in test [1] (10 nM); 1.01 ± 0.02 in test [1] (50 nM); 1.04 ± 0.012 in test [1] (100 nM). In addition, the surviving fraction turned out to be 1.04 ± 0.03 in test [1] (500 nM); 1.02 ± 0.033 in test [1] (1000 nM); 0.706 ± 0.028 in test [2] (0.5 nM); 0.328 ± 0.039 in test [2] (1 nM); 0.163 ± 0.0032 in test [2] (5 nM); 0.125 ± 0.0027 in test [2] (10 nM). The surviving fraction is 0.121 ± 0.0031 in test [2] (50 nM), 0.121 ± 0.0088 in test [2] (100 nM), 0.0907 ± 0.0055 in test [2] (500 nM) and 0.0993 ± 0.0078 in test [2] (1000 nM).
Take SJSA1 BONE: the surviving fraction in test [1] (0.5 nM) was determined as 1.15 ± 0.061; in test [1] (1 nM), 1.68 ± 0.074; in test [1] (5 nM), 1.6 ± 0.048; in test [1] (10 nM), 1.54 ± 0.045; in test [1] (50 nM), 1.71 ± 0.07; in test [1] (100 nM), 1.81 ± 0.054. Moreover, the surviving fraction came to 1.65 ± 0.039 in test [1] (500 nM); 1.85 ± 0.11 in test [1] (1000 nM); 0.942 ± 0.048 in test [2] (0.5 nM); 0.833 ± 0.041 in test [2] (1 nM); 0.342 ± 0.0057 in test [2] (5 nM); 0.18 ± 0.013 in test [2] (10 nM). For the same test system, the surviving fraction in test [2] (50 nM) was 0.135 ± 0.0021; in test [2] (100 nM), 0.113 ± 0.0021; in test [2] (500 nM), 0.107 ± 0.01; in test [2] (1000 nM), 0.114 ± 0.017.
Take T47D BREAST: the surviving fraction in test [1] (0.5 nM) was 1.08 ± 0.026; in test [1] (1 nM) it was 1.05 ± 0.081; in test [1] (5 nM) it was 1.08 ± 0.043; in test [1] (10 nM) it was 1.08 ± 0.035; in test [1] (50 nM), 1.14 ± 0.054; in test [1] (100 nM), 1.15 ± 0.021. The surviving fraction in test [1] (500 nM) was 1.11 ± 0.014; in test [1] (1000 nM), 1.13 ± 0.012; in test [2] (0.5 nM), 0.718 ± 0.018; in test [2] (1 nM), 0.579 ± 0.01; in test [2] (5 nM), 0.307 ± 0.0054; in test [2] (10 nM), 0.265 ± 0.027. Besides, the surviving fraction in test [2] (50 nM) turned out to be 0.226 ± 0.011; in test [2] (100 nM), 0.222 ± 0.022; in test [2] (500 nM), 0.214 ± 0.0067; in test [2] (1000 nM) it was 0.226 ± 0.023.
